# Legend:
# Assay in all cases: KinomeScan kinase profiling
# Type in all cases: binding
# [1] = molecular target: T1, CSNK1A1L (Homo sapiens, UniProt Q8N752)
# T1 construct: host or cells: T7 phage in E. coli (BL21-derived)
# Procedure, shortened: (§1)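 Kinases were expressed as T7 phage fusions in a BL21-derived E. coli host and the cleared lysates were used. Ligand beads were blocked with biotin and buffer (1% BSA, 0.05% Tween 20, 1 mM DTT). Compounds came from 40× DMSO stocks, and phage in the eluates was titred by qPCR.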
# [2] = molecular target: T2, RPS6KA6 (Kin.Dom.-1-N-terminal) (Homo sapiens, UniProt Q9UK32)
# T2 construct: RPS6KA6 (Kin.Dom.-1-N-terminal); host or cells: E. coli host derived from BL21, T7 phage lysate
# Procedure, shortened: as §1
# [3] = molecular target: T3, MYO3A (Homo sapiens, UniProt Q8NEV4)
# T3 construct: host or cells: T7 phage in E. coli host derived from BL21
# Procedure, shortened: as §1
# [4] = molecular target: T4, EPHB2 (Homo sapiens, UniProt P29323)
# T4 construct: host or cells: E. coli host derived from BL21, T7 phage lysate
# Procedure, shortened: as §1
# [5] = molecular target: T5, MYO3B (Homo sapiens, UniProt Q8WXR4)
# T5 construct: host or cells: T7 phage in E. coli host derived from BL21
# Procedure, shortened: as §1
# [6] = molecular target: T6, PDGFRB (Homo sapiens, UniProt P09619)
# T6 construct: host or cells: E. coli host derived from the BL21 strain, infected with T7 phage
# Procedure, shortened: as §1
# [7] = molecular target: T7, GSK3B (Homo sapiens, UniProt P49841)
# T7 construct: host or cells: E. coli host derived from BL21, infected with T7 phage
# Procedure, shortened: as §1
# [8] = molecular target: T8, MST4 (Homo sapiens, UniProt Q9P289)
# T8 construct: host or cells: T7 phage in E. coli host derived from BL21
# Procedure, shortened: as §1
# [9] = molecular target: T9, EGFR (Homo sapiens, UniProt P00533)
# T9 construct: purchased Ambit Biosciences Corp (KinomeScan); host or cells: T7 phage in E. coli host derived from BL21
# Procedure, shortened: as §1
# [10] = molecular target: T10, ADCK3 (Homo sapiens, UniProt Q8NI60)
# T10 construct: host or cells: E. coli host derived from BL21 (T7 phage lysate)
# Procedure, shortened: as §1
# [11] = molecular target: T11, p38-delta (Homo sapiens, UniProt O15264)
# T11 construct: host or cells: E. coli host derived from the BL21 strain, infected with T7 phage
# Procedure, shortened: as §1
# [12] = molecular target: T12, MST2 (Homo sapiens, UniProt Q13188)
# T12 construct: host or cells: T7 phage in E. coli host derived from BL21
# Procedure, shortened: as §1
# [13] = molecular target: T13, p38-alpha (Homo sapiens, UniProt Q16539)
# T13 construct: host or cells: E. coli host derived from the BL21 strain, infected with T7 phage
# Procedure, shortened: as §1
# [14] = molecular target: T14, CSNK1G2 (Homo sapiens, UniProt P78368)
# T14 construct: purchased Ambit Biosciences Corp (KinomeScan); host or cells: T7 phage in E. coli host derived from BL21
# Procedure, shortened: as §1
# [15] = molecular target: T15, NLK (Homo sapiens, UniProt Q9UBE8)
# T15 construct: host or cells: E. coli host derived from the BL21 strain, infected with T7 phage
# Procedure, shortened: as §1
# [16] = molecular target: T16, FLT3 (Homo sapiens, UniProt P36888)
# T16 construct: host or cells: E. coli host derived from BL21, infected with T7 phage
# Procedure, shortened: as §1
# [17] = molecular target: T17, PRKX (Homo sapiens, UniProt P51817)
# T17 construct: host or cells: E. coli host derived from BL21, T7 phage lysate
# Procedure, shortened: as §1
# [18] = molecular target: T18, RIPK4 (Homo sapiens, UniProt P57078)
# T18 construct: host or cells: E. coli host derived from BL21, T7 phage lysate
# Procedure, shortened: as §1
# [19] = molecular target: T19, FGFR3 (Homo sapiens, UniProt P22607)
# T19 construct: host or cells: E. coli host derived from BL21, infected with T7 phage
# Procedure, shortened: as §1
# [20] = molecular target: T20, TESK1 (Homo sapiens, UniProt Q15569)
# T20 construct: host or cells: E. coli host derived from the BL21 strain, T7 phage lysate
# Procedure, shortened: as §1
# [21] = molecular target: T21, PRKD1 (Homo sapiens, UniProt Q15139)
# T21 construct: purchased Ambit Biosciences Corp (KinomeScan); host or cells: E. coli host derived from BL21, infected with T7 phage
# Procedure, shortened: as §1
# [22] = molecular target: T22, CSNK2A2 (Homo sapiens, UniProt P19784)
# T22 construct: purchased Ambit Biosciences Corp (KinomeScan); host or cells: T7 phage in E. coli host derived from BL21
# Procedure, shortened: as §1
# [23] = molecular target: T23, TLK1 (Homo sapiens, UniProt Q9UKI8)
# T23 construct: purchased Ambit Biosciences Corp (KinomeScan); host or cells: E. coli host derived from the BL21 strain (T7 phage lysate)
# Procedure, shortened: as §1
# T22 sequence (P19784 whole entry): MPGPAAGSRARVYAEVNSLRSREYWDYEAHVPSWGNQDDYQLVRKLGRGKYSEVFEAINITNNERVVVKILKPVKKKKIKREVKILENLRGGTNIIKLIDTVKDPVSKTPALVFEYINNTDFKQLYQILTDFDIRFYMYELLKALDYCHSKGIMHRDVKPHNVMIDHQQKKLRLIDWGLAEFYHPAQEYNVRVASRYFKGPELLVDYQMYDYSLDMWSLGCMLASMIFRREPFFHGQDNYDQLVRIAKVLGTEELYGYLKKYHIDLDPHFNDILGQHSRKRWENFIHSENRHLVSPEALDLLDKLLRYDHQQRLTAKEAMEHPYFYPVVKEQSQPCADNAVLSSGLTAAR
# T12 sequence (Q13188 whole entry): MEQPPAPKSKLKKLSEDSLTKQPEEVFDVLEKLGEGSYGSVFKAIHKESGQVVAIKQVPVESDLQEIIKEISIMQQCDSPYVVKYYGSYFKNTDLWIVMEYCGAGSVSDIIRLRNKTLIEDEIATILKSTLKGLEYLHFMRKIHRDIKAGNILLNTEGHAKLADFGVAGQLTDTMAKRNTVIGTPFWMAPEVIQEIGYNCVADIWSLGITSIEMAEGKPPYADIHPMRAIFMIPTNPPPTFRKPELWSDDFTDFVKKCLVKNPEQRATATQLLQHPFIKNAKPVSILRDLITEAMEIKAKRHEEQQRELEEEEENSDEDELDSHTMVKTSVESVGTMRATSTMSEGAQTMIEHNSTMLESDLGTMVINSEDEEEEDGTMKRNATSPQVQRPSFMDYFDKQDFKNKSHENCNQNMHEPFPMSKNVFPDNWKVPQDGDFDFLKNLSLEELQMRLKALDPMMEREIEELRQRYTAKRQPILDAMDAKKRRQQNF
# T5 sequence (Q8WXR4 whole entry): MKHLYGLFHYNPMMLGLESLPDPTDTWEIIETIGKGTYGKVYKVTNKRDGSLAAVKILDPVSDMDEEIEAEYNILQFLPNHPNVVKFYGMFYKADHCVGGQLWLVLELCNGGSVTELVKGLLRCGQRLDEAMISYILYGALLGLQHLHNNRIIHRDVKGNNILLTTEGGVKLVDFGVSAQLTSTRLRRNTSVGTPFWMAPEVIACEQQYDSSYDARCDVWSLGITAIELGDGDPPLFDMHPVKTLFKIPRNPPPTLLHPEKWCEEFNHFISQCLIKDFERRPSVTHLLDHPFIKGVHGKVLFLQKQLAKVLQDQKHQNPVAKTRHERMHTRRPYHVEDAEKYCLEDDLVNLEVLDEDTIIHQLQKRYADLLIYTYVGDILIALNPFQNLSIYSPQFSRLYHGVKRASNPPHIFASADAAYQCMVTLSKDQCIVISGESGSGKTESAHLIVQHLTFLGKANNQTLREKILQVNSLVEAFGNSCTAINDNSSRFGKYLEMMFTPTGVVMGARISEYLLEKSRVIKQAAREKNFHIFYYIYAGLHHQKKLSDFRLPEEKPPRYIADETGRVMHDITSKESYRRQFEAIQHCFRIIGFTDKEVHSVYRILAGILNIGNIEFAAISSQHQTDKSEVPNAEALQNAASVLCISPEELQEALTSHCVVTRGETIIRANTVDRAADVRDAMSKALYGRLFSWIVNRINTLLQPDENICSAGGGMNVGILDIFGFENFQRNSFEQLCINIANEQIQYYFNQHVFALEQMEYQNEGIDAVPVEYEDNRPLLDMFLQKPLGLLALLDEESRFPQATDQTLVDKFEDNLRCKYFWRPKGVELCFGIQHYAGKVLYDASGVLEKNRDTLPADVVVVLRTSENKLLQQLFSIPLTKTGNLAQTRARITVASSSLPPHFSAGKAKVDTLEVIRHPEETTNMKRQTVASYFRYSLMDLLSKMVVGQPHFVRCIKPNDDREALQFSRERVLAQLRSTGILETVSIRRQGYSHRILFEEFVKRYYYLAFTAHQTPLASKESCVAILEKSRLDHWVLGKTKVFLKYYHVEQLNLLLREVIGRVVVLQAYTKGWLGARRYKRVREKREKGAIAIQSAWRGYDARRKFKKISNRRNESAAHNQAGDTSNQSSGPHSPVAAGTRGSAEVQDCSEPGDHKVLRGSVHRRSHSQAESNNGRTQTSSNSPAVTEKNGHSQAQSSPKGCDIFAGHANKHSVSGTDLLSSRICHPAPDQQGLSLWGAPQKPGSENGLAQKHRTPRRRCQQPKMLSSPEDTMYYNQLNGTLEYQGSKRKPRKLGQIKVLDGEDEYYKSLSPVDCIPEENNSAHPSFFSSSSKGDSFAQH
# T3 sequence (Q8NEV4 whole entry): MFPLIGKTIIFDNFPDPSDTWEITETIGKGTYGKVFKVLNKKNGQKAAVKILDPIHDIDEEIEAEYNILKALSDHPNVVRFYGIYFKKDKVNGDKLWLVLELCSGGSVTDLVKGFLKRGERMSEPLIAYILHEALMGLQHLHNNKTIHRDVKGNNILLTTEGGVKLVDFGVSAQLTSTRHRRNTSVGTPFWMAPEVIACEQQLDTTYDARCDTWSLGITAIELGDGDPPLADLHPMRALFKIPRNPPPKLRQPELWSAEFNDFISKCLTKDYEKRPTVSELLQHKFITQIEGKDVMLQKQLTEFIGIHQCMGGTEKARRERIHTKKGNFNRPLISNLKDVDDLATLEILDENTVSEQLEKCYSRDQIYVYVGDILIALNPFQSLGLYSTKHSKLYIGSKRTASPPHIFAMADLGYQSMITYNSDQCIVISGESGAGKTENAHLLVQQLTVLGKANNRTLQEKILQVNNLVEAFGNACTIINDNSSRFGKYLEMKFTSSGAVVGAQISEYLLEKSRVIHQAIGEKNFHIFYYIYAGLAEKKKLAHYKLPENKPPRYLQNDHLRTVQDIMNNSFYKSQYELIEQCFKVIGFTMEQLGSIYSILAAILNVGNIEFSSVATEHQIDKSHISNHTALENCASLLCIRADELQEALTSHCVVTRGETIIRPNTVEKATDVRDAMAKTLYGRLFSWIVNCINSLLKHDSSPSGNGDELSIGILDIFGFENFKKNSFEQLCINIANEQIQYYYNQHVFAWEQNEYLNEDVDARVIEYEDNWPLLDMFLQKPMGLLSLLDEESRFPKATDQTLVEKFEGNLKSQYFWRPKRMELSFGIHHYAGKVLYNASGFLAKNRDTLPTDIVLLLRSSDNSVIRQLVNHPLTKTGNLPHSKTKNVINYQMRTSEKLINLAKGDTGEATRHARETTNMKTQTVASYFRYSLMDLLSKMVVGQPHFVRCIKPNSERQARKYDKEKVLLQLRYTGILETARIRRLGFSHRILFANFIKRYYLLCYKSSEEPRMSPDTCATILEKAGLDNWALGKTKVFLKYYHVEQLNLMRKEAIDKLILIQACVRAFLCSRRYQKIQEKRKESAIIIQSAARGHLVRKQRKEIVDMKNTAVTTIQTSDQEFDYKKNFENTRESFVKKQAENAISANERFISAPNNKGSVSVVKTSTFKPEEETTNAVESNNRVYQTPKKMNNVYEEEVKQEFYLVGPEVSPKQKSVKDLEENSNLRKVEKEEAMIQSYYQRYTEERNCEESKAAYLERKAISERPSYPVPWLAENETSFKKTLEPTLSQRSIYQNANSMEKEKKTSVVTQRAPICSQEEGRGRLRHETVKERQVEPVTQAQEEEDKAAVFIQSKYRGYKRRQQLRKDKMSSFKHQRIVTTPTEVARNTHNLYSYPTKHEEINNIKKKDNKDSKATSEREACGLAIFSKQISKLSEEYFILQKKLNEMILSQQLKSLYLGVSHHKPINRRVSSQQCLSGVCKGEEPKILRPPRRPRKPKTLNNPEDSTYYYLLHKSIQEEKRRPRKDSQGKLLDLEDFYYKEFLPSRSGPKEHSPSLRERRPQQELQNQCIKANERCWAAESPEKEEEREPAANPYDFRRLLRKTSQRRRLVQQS
# T16 sequence (P36888 27-993): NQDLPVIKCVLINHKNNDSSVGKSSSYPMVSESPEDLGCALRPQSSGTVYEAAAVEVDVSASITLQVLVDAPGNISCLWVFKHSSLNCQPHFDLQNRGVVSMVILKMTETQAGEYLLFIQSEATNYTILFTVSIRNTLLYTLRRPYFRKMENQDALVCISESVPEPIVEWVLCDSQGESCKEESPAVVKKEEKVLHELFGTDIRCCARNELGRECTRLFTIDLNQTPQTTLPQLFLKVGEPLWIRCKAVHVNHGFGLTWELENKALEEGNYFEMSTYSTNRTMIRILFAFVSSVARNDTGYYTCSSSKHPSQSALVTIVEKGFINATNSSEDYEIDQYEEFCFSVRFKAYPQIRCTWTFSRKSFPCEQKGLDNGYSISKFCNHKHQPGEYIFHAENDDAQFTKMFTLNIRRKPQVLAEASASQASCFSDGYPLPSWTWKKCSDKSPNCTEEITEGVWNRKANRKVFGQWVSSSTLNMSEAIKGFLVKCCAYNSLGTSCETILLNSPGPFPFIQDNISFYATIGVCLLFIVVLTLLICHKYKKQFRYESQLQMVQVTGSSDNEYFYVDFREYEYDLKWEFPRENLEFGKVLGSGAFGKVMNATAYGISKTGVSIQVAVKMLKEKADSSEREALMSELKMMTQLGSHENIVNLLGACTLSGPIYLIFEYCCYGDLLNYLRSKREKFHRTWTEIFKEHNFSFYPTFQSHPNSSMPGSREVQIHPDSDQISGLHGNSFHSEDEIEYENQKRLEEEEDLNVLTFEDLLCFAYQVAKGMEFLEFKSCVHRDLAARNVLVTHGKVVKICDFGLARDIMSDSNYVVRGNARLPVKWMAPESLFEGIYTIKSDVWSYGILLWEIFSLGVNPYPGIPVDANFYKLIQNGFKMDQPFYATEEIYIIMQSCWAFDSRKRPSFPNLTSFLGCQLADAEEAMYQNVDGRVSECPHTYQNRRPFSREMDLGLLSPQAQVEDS
# T1 sequence (Q8N752 whole entry): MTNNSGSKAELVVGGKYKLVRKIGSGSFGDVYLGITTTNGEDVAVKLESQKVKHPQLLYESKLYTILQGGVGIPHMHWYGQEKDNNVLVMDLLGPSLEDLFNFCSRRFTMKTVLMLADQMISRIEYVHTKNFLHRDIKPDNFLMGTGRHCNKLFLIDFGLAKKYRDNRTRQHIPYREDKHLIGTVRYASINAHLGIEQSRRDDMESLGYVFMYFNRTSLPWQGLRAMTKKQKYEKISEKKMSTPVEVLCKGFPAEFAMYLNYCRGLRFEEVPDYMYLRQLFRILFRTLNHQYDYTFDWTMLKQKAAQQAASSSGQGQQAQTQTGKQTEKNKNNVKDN
structure (smiles),measurement,setting,value
"C#Cc1cccc(Nc2ncnc3cc(OC)c(OCCCN4CCOCC4)cc23)c1 [NRC-2694, N-(3-ethylnylphenyl)-7-methoxy-6-[3-(4-morpholinyl)propoxy]-4-quinazolinamine]",% Ctrl @ 10000 nM,[1],44 % Ctrl
same,% Ctrl @ 10000 nM,[2],94 % Ctrl
same,% Ctrl @ 10000 nM,[3],70 % Ctrl
same,% Ctrl @ 10000 nM,[4],83 % Ctrl
same,% Ctrl @ 10000 nM,[5],100 % Ctrl
same,% Ctrl @ 10000 nM,[6],10 % Ctrl
same,% Ctrl @ 10000 nM,[7],100 % Ctrl
same,% Ctrl @ 10000 nM,[8],29 % Ctrl
same,% Ctrl @ 10000 nM,[9],0 % Ctrl
same,% Ctrl @ 10000 nM,[10],14 % Ctrl
same,% Ctrl @ 10000 nM,[11],100 % Ctrl
same,% Ctrl @ 10000 nM,[12],85 % Ctrl
same,% Ctrl @ 10000 nM,[13],89 % Ctrl
same,% Ctrl @ 10000 nM,[14],76 % Ctrl
same,% Ctrl @ 10000 nM,[15],55 % Ctrl
same,% Ctrl @ 10000 nM,[16],49 % Ctrl
same,% Ctrl @ 10000 nM,[17],100 % Ctrl
same,% Ctrl @ 10000 nM,[18],96 % Ctrl
same,% Ctrl @ 10000 nM,[19],100 % Ctrl
same,% Ctrl @ 10000 nM,[20],83 % Ctrl
same,% Ctrl @ 10000 nM,[21],9.6 % Ctrl
same,% Ctrl @ 10000 nM,[22],52 % Ctrl
same,% Ctrl @ 10000 nM,[23],77 % Ctrl

# Source: patent publication US9050341B2, “Methods of treating drug resistant and other tumors by administering 6,7-dialkoxy quinazoline derivatives” (NATCO PHARMA LIMITED, priority 2009, dated 2015)
